The source of these data is PMC3389674, “Comparison of Soluble Guanylate Cyclase Stimulators and Activators in Models of Cardiovascular Disease Associated with Oxidative Stress” (Frontiers in Pharmacology, 2012).

Assay [1] concerns dogs. On the set-up: method as in Korkmaz et al., 2009. To be noted: administered 5 min prior to reperfusion following 60 min global cardiac ischemia; ref Korkmaz et al., 2009; cited from earlier work.
The subject of assay [2] is rat hearts. On the set-up: method as in Krieg et al., 2009. To be noted: administered 5 min prior to reperfusion following 30 min regional ischemia; ref Krieg et al., 2009; cited from earlier work.
The test system of assay [3] is rabbit hearts. On the set-up: method as in Krieg et al., 2009; Cohen et al., 2010. To be noted: administered 5 min prior to reperfusion following 30 min regional ischemia; ref Krieg et al., 2009; Cohen et al., 2010; cited from earlier work.
The subject of assay [4] is SHR-SP isolated aorta. Put plainly: vasoactivity of SHR-SP isolated aorta (ND, HSFD and after chronic treatment). On the set-up: species or system rat. To be noted: for EC50: Rattus norvegicus. As for the experimental part:
In separate studies, endothelial function was assessed following chronic (7 week) BAY 60-4552 or GSK2181236A treatment in SHR-SP on HSFD. SHR-SP fed either normal or HSFD served as controls. Rats were anesthetized and thoracic aorta were isolated and treated with KCl and phenylephrine as described above. Cumulative concentration-response curves to phenylephrine were obtained by adding 0.5 log unit increments (1 nM to 3 μM). Following several washes with KHB, each vessel was contracted to equilibrium with 0.3 μM phenylephrine and tone was reversed by adding cumulative amounts of carbachol at 0.5 log unit intervals (10 nM to 30 μM). Following several KHB washes, the tissues were again contracted to equilibrium with 0.3 μM phenylephrine and tone was reversed by adding cumulative amounts of SNP at 0.5 log unit intervals (0.1 nM to 3 μM). In separate tissues from both the normal and HSFD SHR-SP control groups, the direct vasodilatory effects of BAY 60-4552 and GSK2181236A were investigated. Contractile tone induced by 0.3 μM phenylephrine was reversed by adding cumulative concentrations of BAY 60-4552 or GSK2181236A to the tissue baths at log increments (0.1 nM to 10 μM).

Read-outs that look alike come from different tables or passages of the source.

Turning to `O=C(O)CCCCN(CCc1ccccc1OCc1ccc(CCc2ccccc2)cc1)Cc1ccc(C(=O)O)cc1` [BAY 58-2667], the cardiac function entry in assay [1] is given as “improved cardiac function”. Moreover, the infarct size entry in assay [2] and in assay [3] was “decreased infarct size” throughout.

What is called EC50 is the concentration that produces a half-maximal response. On to `CNC[C@H](O)c1cccc(O)c1` [Phenylephrine, phenylephrine], for which the EC50 in assay [4] (aorta from HSFD SHR-SP, read-out: Phenylephrine EC50 (contraction)) stood at 72 ± 11 nM; in assay [4] (aorta from ND SHR-SP, read-out: Phenylephrine EC50 (contraction)), 67 ± 6 nM. For the same compound, the figures for the “Phenylephrine Emax” value in assay [4] (aorta from HSFD SHR-SP) and in assay [4] (aorta from ND SHR-SP) were 83 ± 10 % KCl and 90 ± 4 % KCl, respectively.

As for `C[N+](C)(C)CCOC(N)=O` [Carbachol, carbachol], the EC50 in assay [4] (aorta from HSFD SHR-SP, read-out: Carbachol EC50 (vasodilation)) stood at 260 ± 74 nM; in assay [4] (aorta from ND SHR-SP, read-out: Carbachol EC50 (vasodilation)) it was 119 ± 15 nM. Moreover, the “Carbachol Emax” value in assay [4] (aorta from HSFD SHR-SP) is on record as 47 ± 11 % reversal of PE tone; in assay [4] (aorta from ND SHR-SP), 85 ± 3 % reversal of PE tone.
